This passage reports inhibition results from patent US20040176431A1, “Antiproliferative 2-(sulfo-phenyl)-aminothiazole derivatives and pharmaceutical compositions, and methods for their use” (Pfizer, Inc., priority 2003, published 2004).

The test concerns the target T1, CDK4/cyclin D3 (Homo sapiens, UniProt P11802).
T1 construct: made in house; host or cells: insect cells (baculovirus co-infection)
The experiment in a line: Inhibition of CDK4/Cyclin D retinoblastoma kinase activity. Type of test: biochemical. To be noted: for inhibition at 0.1 µM: test compound at 0.1 μM, read-out: % Inhib CDK4/D @ 0.1 μM; for inhibition at 1 µM: test compound at 1 μM (head line shifted: 'mM' printed beside 'Structure'), read-out: % Inhib CDK4/D @ 1 μM; for inhibition at 0.03 µM: test compound at 0.03 (unit cell empty, head line shifted; μM), read-out: % Inhib CDK4/D @ 0.03. As to the method: Cyclin-dependent kinase activity was measured by quantifying the enzyme-catalyzed, time-dependent incorporation of radioactive phosphate from [^32P]ATP or [^33P]ATP into a protein substrate. Unless noted otherwise, assays were performed in 96-well plates in a total volume of 50 μL, in the presence of 10 mM HEPES (N-[2-hydroxyethyl]piperazine-N′-[2-ethanesulfonic acid]) (pH 7.4), 10 mM MgCl2, 25 μM adenosine triphosphate (ATP), 1 mg/mL ovalbumin, 5 μg/mL leupeptin, 1 mM dithiothreitol, 10 mM β-glycerophosphate, 0.1 mM sodium vanadate, 1 mM sodium fluoride, 2.5 mM ethylene glycol-bis(β-aminoethyl ether)-N,N,N′N′-tetraacetic acid (EGTA), 2% (v/v) dimethylsulfoxide, and 0.03-0.4 μCi [^32/33P]ATP per reaction. Reactions were initiated with enzyme, incubated at 30° C., and terminated after 20 minutes by the addition of ethylenediaminetetraacetic acid (EDTA) to 250 mM. The phosphorylated substrate was then captured on a nitrocellulose or phosphocellulose membrane using a 96-well filtration manifold, and unincorporated radioactivity was removed by repeated washing with 0.85% phosphoric acid. Radioactivity was quantified by exposing the dried membranes to a phosphorimager.
Inhibition was measured relative to control wells that contained all reaction components including 2% (v/v) DMSO but no compound, after subtraction of background radioactivity measured in the absence of enzyme. Apparent Ki values of discrete compounds were measured by assaying enzyme activity in the presence of different inhibitor compound concentrations and subtracting the background radioactivity measured in the absence of enzyme. The kinetic parameters (kcat, Km for ATP) were measured for each enzyme under the usual assay conditions by determining the dependence of initial rates on ATP concentration. Inhibition data were fit to an equation for competitive inhibition using Kaleidagraph (Synergy Software), or were fit to an equation for competitive tight-binding inhibition using the software KineTic (BioKin, Ltd.).
A complex of human CDK4 and genetically truncated (1-264) cyclin D3 was purified using traditional biochemical chromatographic techniques from insect cells that had been co-infected with the corresponding baculovirus expression vectors (see e.g., Meijer and Kim, “Chemical Inhibitors of Cyclin-Dependent Kinases,” Methods in Enzymol., 283, 113-128 (1997)). The enzyme complex (5 nM) was assayed with 0.3-0.5 μg of purified recombinant retinoblastoma protein fragment (Rb) as a substrate. The engineered Rb fragment (residues 386-928 of the native retinoblastoma protein; 62.3 kDa) contains the majority of the phosphorylation sites found in the native 106-kDa protein, as well as a tag of six histidine residues for ease of purification. Phosphorylated Rb substrate was captured by microfiltration on a nitrocellulose membrane and quantified using a phosphorimager as described above. For measurement of tight-binding inhibitors, the assay duration was extended to 60 minutes, during which the time-dependence of product formation was linear and initial rate conditions were met.

T1 sequence (P11802 whole entry): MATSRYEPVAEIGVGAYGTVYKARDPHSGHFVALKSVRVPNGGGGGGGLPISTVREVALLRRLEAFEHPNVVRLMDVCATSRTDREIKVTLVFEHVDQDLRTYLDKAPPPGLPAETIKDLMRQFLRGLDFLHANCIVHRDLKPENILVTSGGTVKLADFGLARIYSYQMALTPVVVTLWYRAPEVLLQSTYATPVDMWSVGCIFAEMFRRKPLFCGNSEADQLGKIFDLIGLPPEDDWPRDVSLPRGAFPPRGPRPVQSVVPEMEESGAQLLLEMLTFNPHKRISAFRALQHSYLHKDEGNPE
T1 sequence (P30281 1-264 partner limits assumed): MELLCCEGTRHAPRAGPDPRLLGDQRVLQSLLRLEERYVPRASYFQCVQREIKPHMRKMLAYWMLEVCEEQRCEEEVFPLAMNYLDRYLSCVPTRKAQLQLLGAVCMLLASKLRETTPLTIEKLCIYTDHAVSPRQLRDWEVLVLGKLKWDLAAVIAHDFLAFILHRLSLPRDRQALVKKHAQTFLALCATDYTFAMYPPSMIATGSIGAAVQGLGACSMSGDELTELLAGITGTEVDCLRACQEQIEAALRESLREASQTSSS

For `CN(C)CCSc1cccc(Nc2nc(N)c(C(=O)c3c(Cl)cccc3Cl)s2)c1` [DD(72)], the inhibition at 0.1 µM was found to be 25%, the inhibition at 1 µM amounted to 69% and the inhibition at 0.03 µM is -1.1%.

In the case of `CCOCCSc1cccc(Nc2nc(N)c(C(=O)c3c(Cl)cccc3Cl)s2)c1` [DD(73)], the inhibition at 0.1 µM stood at 31%, the inhibition at 1 µM worked out at 73.7% and the inhibition at 0.03 µM amounted to 11%.

With `Nc1nc(Nc2cccc(SCC(O)CO)c2)sc1C(=O)c1c(Cl)cccc1Cl` (stereo not drawn) [DD(74)], the inhibition at 0.1 µM was determined as 59%, the inhibition at 1 µM came out at 85.7% and the inhibition at 0.03 µM came to 28%.

For the compound `Nc1nc(Nc2cccc(SCc3ccncc3)c2)sc1C(=O)c1c(Cl)cccc1Cl` [DD(75)], the inhibition at 0.1 µM amounted to 29%, the inhibition at 1 µM is 66.5% and the inhibition at 0.03 µM was 18%.

`CCC(CC)CSc1cccc(Nc2nc(N)c(C(=O)c3c(Cl)cccc3Cl)s2)c1` [DD(76)]: the inhibition at 0.1 µM was 9.6%, the inhibition at 1 µM turned out to be 29.5% and the inhibition at 0.03 µM was 19%.

In the case of `CC(=O)OCCSc1cccc(Nc2nc(N)c(C(=O)c3c(Cl)cccc3Cl)s2)c1` [DD(77)], the inhibition at 0.1 µM is 30%, the inhibition at 1 µM was 71.9% and the inhibition at 0.03 µM is 23%.

Consider `CC(C)OC(=O)CCSc1cccc(Nc2nc(N)c(C(=O)c3c(Cl)cccc3Cl)s2)c1` [DD(78)], for which the inhibition at 0.1 µM is 22%, the inhibition at 1 µM turned out to be 36.2% and the inhibition at 0.03 µM was 13%.

Consider `Nc1nc(Nc2cccc(SCCN3CCOCC3)c2)sc1C(=O)c1c(Cl)cccc1Cl` [DD(79)], for which the inhibition at 0.1 µM stood at 4.3%, the inhibition at 1 µM was determined as 62.3% and the inhibition at 0.03 µM is 9.1%.

Take `CC(C)(CO)CSc1cccc(Nc2nc(N)c(C(=O)c3c(Cl)cccc3Cl)s2)c1` [DD(80)]: the inhibition at 0.1 µM is 1.5%, the inhibition at 1 µM amounted to 56% and the inhibition at 0.03 µM was found to be 1.2%.

Consider `CCN(CC)C(=O)C[S+]([O-])c1ccc(Nc2nc(N)c(C(=O)c3c(Cl)cccc3Cl)s2)cc1` (stereo not drawn) [DD(81)], for which the inhibition at 0.1 µM was determined as 21%, the inhibition at 1 µM worked out at 57.4% and the inhibition at 0.03 µM is -21%.

Consider `Cc1noc(C)c1C[S+]([O-])c1ccc(Nc2nc(N)c(C(=O)c3c(Cl)cccc3Cl)s2)cc1` (stereo not drawn) [DD(82)], for which the inhibition at 0.1 µM is -4%, the inhibition at 1 µM was found to be 72.3% and the inhibition at 0.03 µM is -3.3%.

`CC(CN(C)C)C[S+]([O-])c1ccc(Nc2nc(N)c(C(=O)c3c(Cl)cccc3Cl)s2)cc1` (stereo not drawn) [DD(83)]: the inhibition at 0.1 µM stood at 31%, the inhibition at 1 µM came out at 43% and the inhibition at 0.03 µM was -17%.

Turning to `COC(=O)/C=C/C[S+]([O-])c1ccc(Nc2nc(N)c(C(=O)c3c(Cl)cccc3Cl)s2)cc1` (stereo not drawn) [DD(84)], the inhibition at 0.1 µM came to 26%, the inhibition at 1 µM worked out at 45.7% and the inhibition at 0.03 µM was -5.6%.

Take `Nc1nc(Nc2ccc([S+]([O-])CCCO)cc2)sc1C(=O)c1c(Cl)cccc1Cl` (stereo not drawn) [DD(85)]: the inhibition at 0.1 µM was found to be 49%, the inhibition at 1 µM came to 76.8% and the inhibition at 0.03 µM is 3.7%.

Take `C=CCC[S+]([O-])c1ccc(Nc2nc(N)c(C(=O)c3c(Cl)cccc3Cl)s2)cc1` (stereo not drawn) [DD(86)]: the inhibition at 0.1 µM stood at 36%, the inhibition at 1 µM came out at 62.5% and the inhibition at 0.03 µM was -9.8%.

For `Nc1nc(Nc2ccc([S+]([O-])CCN3CCCC3)cc2)sc1C(=O)c1c(Cl)cccc1Cl` (stereo not drawn) [DD(87)], the inhibition at 0.1 µM turned out to be 29%, the inhibition at 1 µM came out at 68.2% and the inhibition at 0.03 µM was -16%.

`Nc1nc(Nc2ccc([S+]([O-])Cc3ncon3)cc2)sc1C(=O)c1c(Cl)cccc1Cl` (stereo not drawn) [DD(88)]: the inhibition at 0.1 µM came to 56%, the inhibition at 1 µM was 81.5% and the inhibition at 0.03 µM turned out to be 4.1%.

In the case of `Nc1nc(Nc2ccc([S+]([O-])CC3CNC(=O)O3)cc2)sc1C(=O)c1c(Cl)cccc1Cl` (stereo not drawn) [DD(89)], the inhibition at 0.1 µM came to 35%, the inhibition at 1 µM worked out at 61.7% and the inhibition at 0.03 µM was -29%.

As to `CN(C)CCC[S+]([O-])c1ccc(Nc2nc(N)c(C(=O)c3c(Cl)cccc3Cl)s2)cc1` (stereo not drawn) [DD(90)], the inhibition at 0.1 µM is 44%, the inhibition at 1 µM was 70.2% and the inhibition at 0.03 µM was -4.9%.

Take `Nc1nc(Nc2ccc([S+]([O-])CCN3CCCCC3)cc2)sc1C(=O)c1c(Cl)cccc1Cl` (stereo not drawn) [DD(91)]: the inhibition at 0.1 µM turned out to be 24%, the inhibition at 1 µM came to 68.2% and the inhibition at 0.03 µM was -6.3%.

With `Nc1nc(Nc2ccc([S+]([O-])CC3CO3)cc2)sc1C(=O)c1c(Cl)cccc1Cl` (stereo not drawn) [DD(92)], the inhibition at 0.1 µM turned out to be 26%, the inhibition at 1 µM was 65.8% and the inhibition at 0.03 µM is -4.6%.

For `CC(C)CC[S+]([O-])c1ccc(Nc2nc(N)c(C(=O)c3c(Cl)cccc3Cl)s2)cc1` (stereo not drawn) [DD(93)], the inhibition at 0.1 µM was determined as 35%, the inhibition at 1 µM turned out to be 43% and the inhibition at 0.03 µM is -4.4%.

For the compound `COCC[S+]([O-])c1ccc(Nc2nc(N)c(C(=O)c3c(Cl)cccc3Cl)s2)cc1` (stereo not drawn) [DD(94)], the inhibition at 0.1 µM was 51%, the inhibition at 1 µM turned out to be 70.9% and the inhibition at 0.03 µM was 17%.

Take `Nc1nc(Nc2ccc([S+]([O-])CC(=O)Nc3ccccc3)cc2)sc1C(=O)c1c(Cl)cccc1Cl` (stereo not drawn) [DD(95)]: the inhibition at 0.1 µM stood at 55%, the inhibition at 1 µM is 80.7% and the inhibition at 0.03 µM is 5.3%.

As for `Nc1nc(Nc2ccc([S+]([O-])CC3CC3)cc2)sc1C(=O)c1c(Cl)cccc1Cl` (stereo not drawn) [DD(96)], the inhibition at 0.1 µM is 28%, the inhibition at 1 µM was 55.4% and the inhibition at 0.03 µM is -8.1%.

As to `COc1cccc(C[S+]([O-])c2ccc(Nc3nc(N)c(C(=O)c4c(Cl)cccc4Cl)s3)cc2)c1` (stereo not drawn) [DD(97)], the inhibition at 0.1 µM is 36%, the inhibition at 1 µM was 66.8% and the inhibition at 0.03 µM is -3.5%.

Take `Nc1nc(Nc2ccc([S+]([O-])CC3CCCO3)cc2)sc1C(=O)c1c(Cl)cccc1Cl` (stereo not drawn) [DD(98)]: the inhibition at 0.1 µM came out at 21%, the inhibition at 1 µM was found to be 45.4% and the inhibition at 0.03 µM was -12%.

As to `CN1CCCC1CC[S+]([O-])c1ccc(Nc2nc(N)c(C(=O)c3c(Cl)cccc3Cl)s2)cc1` (stereo not drawn) [DD(99)], the inhibition at 0.1 µM came out at 34%, the inhibition at 1 µM was 77.1% and the inhibition at 0.03 µM is -5.6%.

On to `CC1(C[S+]([O-])c2ccc(Nc3nc(N)c(C(=O)c4c(Cl)cccc4Cl)s3)cc2)CO1` (stereo not drawn) [DD(100)], for which the inhibition at 0.1 µM turned out to be 33%, the inhibition at 1 µM came to 63.7% and the inhibition at 0.03 µM is 7.1%.

As to `NC(=O)C[S+]([O-])c1ccc(Nc2nc(N)c(C(=O)c3c(Cl)cccc3Cl)s2)cc1` (stereo not drawn) [DD(101)], the inhibition at 0.1 µM amounted to 78%, the inhibition at 1 µM was 80.4% and the inhibition at 0.03 µM came out at 38%.

As to `CCOC(=O)CC[S+]([O-])c1ccc(Nc2nc(N)c(C(=O)c3c(Cl)cccc3Cl)s2)cc1` (stereo not drawn) [DD(102)], the inhibition at 0.1 µM worked out at 42%, the inhibition at 1 µM is 46.2% and the inhibition at 0.03 µM was determined as 2.1%.
